The values below come from the supplement of paper PMC11281043.

Assay [1] relates to Danio rerio embryo/larva. Put plainly: BMC general abnormality; higher = less potent. Conditions: exposure: 6-8 hpf to 5 dpf, scored at 6 dpf. How it is done:
(§1)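 Zebrafish embryos (with chorion) were exposed from 6-8 hpf to each PFAS (8-point half-log series, top concentration up to 100 uM, 0.4% DMSO, sealed plates, 26 C; n = 6 embryos per concentration), rinsed at 5 dpf and scored at 6 dpf by two blinded observers for mortality, hatching and malformations. Endpoint scores are the % of living larvae affected (dead larvae excluded; […]). Curves were fitted with tcpl (cutoff 16%), and the BMC is the concentration at a benchmark response of 21.6%.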

Assay [2] relates to Danio rerio embryo/larva. Put plainly: max % larvae with pigmentation defects across tested concentrations; higher = more toxic. As to conditions: exposure: 6-8 hpf to 5 dpf, scored at 6 dpf.
The subject of assay [3] is Danio rerio embryo/larva. The assay is described as follows: max % larvae with edema across tested concentrations; higher = more toxic; extreme values may be limits of the assay. As to conditions: exposure: 6-8 hpf to 5 dpf, scored at 6 dpf.
For assay [4], the system named is Danio rerio embryo/larva. The assay is described as follows: max % larvae with tail defects across tested concentrations; higher = more toxic; extreme values may be limits of the assay. Conditions: exposure: 6-8 hpf to 5 dpf, scored at 6 dpf.
Assay [5] has as its system Danio rerio embryo/larva. The assay is described as follows: max % larvae with blood pooling across tested concentrations; higher = more toxic; extreme values may be limits of the assay. Conditions: exposure: 6-8 hpf to 5 dpf, scored at 6 dpf.
Assay [6] concerns Danio rerio embryo/larva. The assay is described as follows: max % larvae generally abnormal across tested concentrations; higher = more toxic; extreme values may be limits of the assay. As to conditions: exposure: 6-8 hpf to 5 dpf, scored at 6 dpf.
The test system of assay [7] is Danio rerio embryo/larva. The assay is described as follows: max % larvae with spinal defects across tested concentrations; higher = more toxic; extreme values may be limits of the assay. As to conditions: exposure: 6-8 hpf to 5 dpf, scored at 6 dpf.
For assay [8], the system named is Danio rerio embryo/larva. Put plainly: max % larvae with abnormal position across tested concentrations; higher = more toxic; extreme values may be limits of the assay. Conditions: exposure: 6-8 hpf to 5 dpf, scored at 6 dpf.
Assay [9] concerns Danio rerio embryo/larva. Put plainly: max % larvae with craniofacial defects across tested concentrations; higher = more toxic; extreme values may be limits of the assay. As to conditions: exposure: 6-8 hpf to 5 dpf, scored at 6 dpf.
For assay [10], the system named is Danio rerio embryo/larva. The assay is described as follows: max % larvae with uninflated swim bladder across tested concentrations; higher = more toxic; extreme values may be limits of the assay. Conditions: exposure: 6-8 hpf to 5 dpf, scored at 6 dpf.
The subject of assay [11] is Danio rerio embryo/larva. The assay is described as follows: BMC edema; higher = less potent. Conditions: exposure: 6-8 hpf to 5 dpf, scored at 6 dpf. How it is done:
as §1

The subject of assay [12] is Danio rerio embryo/larva. Put plainly: BMC abnormal position; higher = less potent. Conditions: exposure: 6-8 hpf to 5 dpf, scored at 6 dpf. As for the experimental part:
as §1

Assay [13] has as its system Danio rerio embryo/larva. The assay is described as follows: BMC swim bladder non-inflation; higher = less potent. Conditions: exposure: 6-8 hpf to 5 dpf, scored at 6 dpf. As for the experimental part:
as §1

For assay [14], the system named is Danio rerio embryo/larva. The assay is described as follows: BMC mortality; max tested concentration (log10 uM): 2; higher = less potent. Conditions: exposure: 6-8 hpf to 5 dpf, scored at 6 dpf. As for the experimental part:
as §1

The subject of assay [15] is Danio rerio embryo/larva. Put plainly: BMC any abnormality; max tested concentration (log10 uM): 2; higher = less potent. Conditions: exposure: 6-8 hpf to 5 dpf, scored at 6 dpf. How it is done:
as §1

Assay [16] relates to Danio rerio embryo/larva. The assay is described as follows: max % larvae unhatched across tested concentrations; max tested concentration (log10 uM): 2; higher = more toxic. As to conditions: exposure: 6-8 hpf to 5 dpf, scored at 6 dpf.
For assay [17], the system named is Danio rerio embryo/larva. Put plainly: max % larvae dead across tested concentrations; max tested concentration (log10 uM): 2; higher = more toxic; extreme values may be limits of the assay. Conditions: exposure: 6-8 hpf to 5 dpf, scored at 6 dpf.
Assay [18] concerns Danio rerio embryo/larva. Put plainly: max % larvae with any abnormality across tested concentrations; max tested concentration (log10 uM): 2; higher = more toxic; extreme values may be limits of the assay. Conditions: exposure: 6-8 hpf to 5 dpf, scored at 6 dpf.
In assay [19] the test system is Danio rerio embryo/larva. Put plainly: BMC craniofacial defects; higher = less potent. Conditions: max tested concentration (log10 uM): 2; exposure: 6-8 hpf to 5 dpf, scored at 6 dpf. As for the experimental part:
as §1

[20] abbreviates: max tested concentration (log10 uM): 2.
Where [21] appears, read: max tested concentration (log10 uM): 1.

In the assay with Danio rerio embryo/larva [1], `OCCC(F)(F)C(F)(F)C(F)(F)C(F)(F)C(F)(F)C(F)(F)F` [2-(Perfluorohexyl)ethanol] (max tested concentration (log10 uM): 2) gave a BMC general abnormality of 3.37 µM. For the same compound, the max % larvae is 0% in the assay with Danio rerio embryo/larva [2]; 79.5% in the assay on Danio rerio embryo/larva [3]; 13.6% in the assay with Danio rerio embryo/larva [4]; 0% with Danio rerio embryo/larva [5]; 6.82% with Danio rerio embryo/larva [7]; 11.4% in the assay on Danio rerio embryo/larva [8]. Besides, the max % larvae in the assay on Danio rerio embryo/larva [9] is 68.2%; in the assay with Danio rerio embryo/larva [10], 81.8%. For the same compound, in the assay with Danio rerio embryo/larva [6], the “max % larvae generally abnormal across tested concentrations” value was 79.5%.

As to `O=P(O)(O)CCC(F)(F)C(F)(F)C(F)(F)C(F)(F)C(F)(F)C(F)(F)C(F)(F)C(F)(F)F` [((Perfluorooctyl)ethyl)phosphonic acid], the BMC edema in the assay with Danio rerio embryo/larva [11] (setting [20]) was 1.37 µM. In the assay with Danio rerio embryo/larva [12] (setting [20]), this compound showed a BMC abnormal position of 63.6 µM. In the assay on Danio rerio embryo/larva [13] (setting [20]), the “BMC swim bladder non-inflation” value was 0.92 µM. In the assay with Danio rerio embryo/larva [14], this compound gave a BMC mortality of 10.4 µM. Moreover, in the assay with Danio rerio embryo/larva [15], the BMC any abnormality was found to be 0.578 µM. For the same compound, the “max % larvae unhatched across tested concentrations” value in the assay on Danio rerio embryo/larva [16] turned out to be 0%. For the same compound, the “max % larvae dead across tested concentrations” value in the assay with Danio rerio embryo/larva [17] worked out at 100%. The compound also registered a max % larvae with Danio rerio embryo/larva [18] of 100%.

In turn, `O=C(O)C(F)(F)C(F)(F)C(F)(F)C(F)(F)C(F)(F)C(F)(F)C(F)(F)C(F)(F)C(F)(F)C(F)(F)F` [Perfluoroundecanoic acid] (max tested concentration (log10 uM): 0.477121) came in with a BMC general abnormality in the assay on Danio rerio embryo/larva [1] of 2.74 µM. Moreover, the max % larvae worked out at 0% with Danio rerio embryo/larva [2]; 25% with Danio rerio embryo/larva [3]; 12.5% in the assay on Danio rerio embryo/larva [4]; 8.33% in the assay with Danio rerio embryo/larva [5]; 8.33% with Danio rerio embryo/larva [7]; 8.33% in the assay on Danio rerio embryo/larva [8]. In addition, the max % larvae in the assay on Danio rerio embryo/larva [9] and in the assay with Danio rerio embryo/larva [10] was 16.7% throughout. In addition, the “max % larvae generally abnormal across tested concentrations” value in the assay with Danio rerio embryo/larva [6] is 25%.

Turning to `O=C(O)C(F)(F)OC(F)(F)C(F)(F)OC(F)(F)C(F)(F)OC(F)(F)C(F)(F)C(F)(F)C(F)(F)F` [Perfluoro-3,6,9-trioxatridecanoic acid], the BMC edema in the assay on Danio rerio embryo/larva [11] (setting [21]) came to 3.13 µM. This compound also showed a BMC abnormal position in the assay on Danio rerio embryo/larva [12] (setting [21]) of 8.04 µM. In addition, the “BMC swim bladder non-inflation” value with Danio rerio embryo/larva [13] (setting [21]) was 1.3 µM. Moreover, the BMC mortality in the assay with Danio rerio embryo/larva [14] is 7.79 µM. Also, the BMC any abnormality with Danio rerio embryo/larva [15] turned out to be 2.47 µM. Further, the “max % larvae unhatched across tested concentrations” value with Danio rerio embryo/larva [16] is 0%. Also, in the assay on Danio rerio embryo/larva [17], the “max % larvae dead across tested concentrations” value was found to be 100%. The compound also displayed a max % larvae with Danio rerio embryo/larva [18] of 100%.

On to `OCC(F)(F)C(F)(F)C(F)(F)C(F)(F)C(F)(F)C(F)(F)CO` [1H,1H,8H,8H-Perfluorooctane-1,8-diol], for which, in the assay on Danio rerio embryo/larva [11] (setting [20]), the BMC edema came to 50.7 µM. This compound also showed a BMC craniofacial defects in the assay with Danio rerio embryo/larva [19] of 91 µM. Moreover, in the assay on Danio rerio embryo/larva [13] (setting [20]), the “BMC swim bladder non-inflation” value came out at 10.4 µM. Moreover, in the assay on Danio rerio embryo/larva [15], the BMC any abnormality worked out at 41.3 µM. In addition, in the assay on Danio rerio embryo/larva [16], the “max % larvae unhatched across tested concentrations” value worked out at 0%. In addition, the “max % larvae dead across tested concentrations” value with Danio rerio embryo/larva [17] was 0%. This compound gave a max % larvae in the assay with Danio rerio embryo/larva [18] of 91.7%.

Consider `OCCC(F)(F)C(F)(F)C(F)(F)C(F)(F)C(F)(F)C(F)(F)C(F)(F)C(F)(F)F` [2-(Perfluorooctyl)ethanol], for which the BMC mortality with Danio rerio embryo/larva [14] came to 89 µM. In addition, the “max % larvae unhatched across tested concentrations” value with Danio rerio embryo/larva [16] was 0%. In addition, in the assay with Danio rerio embryo/larva [17], the “max % larvae dead across tested concentrations” value was determined as 25%. Also, in the assay with Danio rerio embryo/larva [18], the max % larvae was 58.3%.

As to `O=C(O)CCC(F)(F)C(F)(F)C(F)(F)C(F)(F)C(F)(F)C(F)(F)F` [3-(Perfluorohexyl)propanoic acid] (max tested concentration (log10 uM): 1), the BMC general abnormality in the assay on Danio rerio embryo/larva [1] was determined as 9.01 µM. Besides, the max % larvae came out at 0% with Danio rerio embryo/larva [2]; 25% in the assay on Danio rerio embryo/larva [3]; 12.5% in the assay with Danio rerio embryo/larva [4]; 0% in the assay on Danio rerio embryo/larva [5]; 0% in the assay with Danio rerio embryo/larva [7]; 4.17% with Danio rerio embryo/larva [8]. The max % larvae in the assay on Danio rerio embryo/larva [9] and in the assay with Danio rerio embryo/larva [10] was 16.7% each time. The “max % larvae generally abnormal across tested concentrations” value in the assay with Danio rerio embryo/larva [6] is 25%.
